Test results published in US5852210A, “Cinnamic acid derivatives” (G. D. Searle & Co., priority 1997, dated 1998).
Counter-ions that a name gives are not always drawn. Like-named read-outs stand apart in the source and are kept apart here.

Legend:
[1] = molecular target: T1, Human vitronectin receptor (αv β3) (Homo sapiens, UniProt P05106+P06756); assay: Vitronectin adhesion assay (solid phase receptor assay, αvβ3); format: binding
T1 construct: Human vitronectin receptor (αv β3) was purified from human placenta; from tissue; host or cells: human placenta
T1 sequence (P06756 31-889 limits assumed): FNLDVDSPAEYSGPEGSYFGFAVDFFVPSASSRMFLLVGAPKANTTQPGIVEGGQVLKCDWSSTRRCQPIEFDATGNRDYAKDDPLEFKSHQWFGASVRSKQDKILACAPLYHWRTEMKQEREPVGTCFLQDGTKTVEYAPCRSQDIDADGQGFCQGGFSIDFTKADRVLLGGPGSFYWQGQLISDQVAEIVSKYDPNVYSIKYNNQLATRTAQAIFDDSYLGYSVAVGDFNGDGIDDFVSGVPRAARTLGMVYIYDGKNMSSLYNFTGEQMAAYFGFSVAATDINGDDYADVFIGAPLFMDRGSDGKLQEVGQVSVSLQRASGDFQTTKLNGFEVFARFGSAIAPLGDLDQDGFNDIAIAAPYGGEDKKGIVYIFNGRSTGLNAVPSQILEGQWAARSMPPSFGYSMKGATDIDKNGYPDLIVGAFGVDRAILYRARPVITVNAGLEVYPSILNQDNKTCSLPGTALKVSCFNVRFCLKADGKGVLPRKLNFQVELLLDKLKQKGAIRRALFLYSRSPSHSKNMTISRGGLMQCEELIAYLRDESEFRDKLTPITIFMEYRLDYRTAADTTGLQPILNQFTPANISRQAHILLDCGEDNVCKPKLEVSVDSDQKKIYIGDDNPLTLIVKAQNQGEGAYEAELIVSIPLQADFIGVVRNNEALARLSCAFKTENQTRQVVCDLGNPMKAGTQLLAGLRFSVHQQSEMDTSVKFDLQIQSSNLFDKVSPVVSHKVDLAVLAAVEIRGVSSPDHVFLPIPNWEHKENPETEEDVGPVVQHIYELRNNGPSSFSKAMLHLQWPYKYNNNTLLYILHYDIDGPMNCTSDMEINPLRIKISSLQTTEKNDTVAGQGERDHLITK
T1 sequence (P06756 891-1048 limits assumed): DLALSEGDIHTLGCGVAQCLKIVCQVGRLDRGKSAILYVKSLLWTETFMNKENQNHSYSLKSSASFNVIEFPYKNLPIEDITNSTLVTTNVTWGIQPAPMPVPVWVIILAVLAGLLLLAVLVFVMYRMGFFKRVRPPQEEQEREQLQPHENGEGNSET
T1 sequence (P05106 27-788): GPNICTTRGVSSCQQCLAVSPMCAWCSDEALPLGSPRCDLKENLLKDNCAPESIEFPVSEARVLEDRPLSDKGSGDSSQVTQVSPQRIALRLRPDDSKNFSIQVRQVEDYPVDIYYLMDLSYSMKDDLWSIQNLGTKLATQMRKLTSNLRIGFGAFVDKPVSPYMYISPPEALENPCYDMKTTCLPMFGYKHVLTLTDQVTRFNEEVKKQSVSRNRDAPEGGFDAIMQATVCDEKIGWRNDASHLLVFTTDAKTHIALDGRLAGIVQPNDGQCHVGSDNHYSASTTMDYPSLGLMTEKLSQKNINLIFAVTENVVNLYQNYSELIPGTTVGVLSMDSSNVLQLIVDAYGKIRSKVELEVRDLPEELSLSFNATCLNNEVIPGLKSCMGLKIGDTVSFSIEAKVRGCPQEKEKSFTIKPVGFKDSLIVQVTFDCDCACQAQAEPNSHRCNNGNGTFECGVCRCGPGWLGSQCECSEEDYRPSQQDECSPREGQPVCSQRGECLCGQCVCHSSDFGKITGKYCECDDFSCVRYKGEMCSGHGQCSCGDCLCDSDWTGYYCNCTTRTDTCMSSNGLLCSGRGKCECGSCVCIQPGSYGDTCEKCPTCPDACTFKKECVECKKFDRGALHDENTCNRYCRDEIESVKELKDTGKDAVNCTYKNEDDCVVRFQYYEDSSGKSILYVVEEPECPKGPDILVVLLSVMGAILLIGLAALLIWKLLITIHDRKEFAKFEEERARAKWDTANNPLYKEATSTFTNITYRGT
Description: (§1) The activity of the compounds of the present invention was tested in the following assays.
Human vitronectin receptor (αv β3) was purified from human placenta as previously described [Pytela et al., Methods in Enzymology, 144:475-489 (1987)]. Human vitronectin was purified from fresh frozen plasma as previously described [Yatohgo et al., Cell Structure and Function, 13:281-292 (1988)]. Biotinylated human vitronectin was prepared by coupling NHS-biotin from Pierce Chemical Company (Rockford, Ill.) to purified vitronectin as previously described [Charo et al., J. Biol. Chem., 266(3):1415-1421 (1991)]. Assay buffer, OPD substrate tablets, and RIA grade BSA were obtained from Sigma (St. Louis, Mo.). Anti-biotin antibody was obtained from Calbiochem (La Jolla, Calif.). Linbro microtiter plates were obtained from Flow Labs (McLean, Va.). ADP reagent was obtained from Sigma (St. Louis, Mo.).
(§2) Solid Phase Receptor Assays
This assay was essentially the same as previously reported [Niiya et al., Blood, 70:475-483 (1987)]. The purified human vitronectin receptor (αv β3) was diluted from stock solutions to […] in Tris-buffered saline containing 1.0 mM Ca^++, Mg^++, and Mn^++, pH 7.4 (TBS^+++). The diluted receptor was immediately transferred to Linbro microtiter plates at 100 μL/well (100 ng receptor/well). The plates were sealed and incubated overnight at 4° C. to allow the receptor to bind to the wells. All remaining steps were at room temperature. The assay plates were emptied and 200 μL, of 1% RIA grade BSA in TBS^+++ (TBS^+++ /BSA) were added to block exposed plastic surfaces. Following a 2 hour incubation, the assay plates were washed with TBS^+++ using a 96 well plate washer. Logarithmic serial dilution of the test compound and controls were made starting at a stock concentration of 2 mM and using 2 nM biotinylated vitronectin in TBS^+++ /BSA as the diluent. This premixing of labeled ligand with test (or control) ligand, and subsequent transfer of 50 μL aliquots to the assay plate was carried out with a CETUS Propette robot; the final concentration of the labeled ligand was 1 nM and the highest concentration of test compound was 1.0×10^-4 M. The competition occurred for two hours after which all wells were washed with a plate washer as before. Affinity purified horseradish peroxidase labeled goat anti-biotin antibody was diluted 1:3000 in TBS^+++ /BSA and 125 μL were added to each well. After 30 minutes, the plates were washed and incubated with OPD/H2 O2 substrate in 100 mM/L Citrate buffer, pH 5.0. The plate was read with a microtiter plate reader at a wavelength of 450 nm and when the maximum-binding control wells reached an absorbance of about 1.0, the final A450 were recorded for analysis. The data were analyzed using a macro written for use with the EXCEL™ spreadsheet program. The mean, standard deviation, and % CV were determined for duplicate concentrations. The mean A450 values were normalized to the mean of four maximum-binding controls (no competitor added) (B-MAX). The normalized values were subjected to a four parameter curve fit algorithm [Rodbard et al., Int.

[2] = molecular target: T2, Human fibrinogen receptor (αIIb β3) (Homo sapiens, UniProt P05106+P08514); assay: Purified IIb/IIIa receptor assay (solid phase receptor assay); settings: inhibition of binding of biotinylated human vitronectin (1 nM) to purified receptor; Table I
T2 construct: Human fibrinogen receptor (αIIb β3) was purified from outdated platelets; from tissue; host or cells: human outdated platelets
T2 sequence (P08514 32-887 limits assumed): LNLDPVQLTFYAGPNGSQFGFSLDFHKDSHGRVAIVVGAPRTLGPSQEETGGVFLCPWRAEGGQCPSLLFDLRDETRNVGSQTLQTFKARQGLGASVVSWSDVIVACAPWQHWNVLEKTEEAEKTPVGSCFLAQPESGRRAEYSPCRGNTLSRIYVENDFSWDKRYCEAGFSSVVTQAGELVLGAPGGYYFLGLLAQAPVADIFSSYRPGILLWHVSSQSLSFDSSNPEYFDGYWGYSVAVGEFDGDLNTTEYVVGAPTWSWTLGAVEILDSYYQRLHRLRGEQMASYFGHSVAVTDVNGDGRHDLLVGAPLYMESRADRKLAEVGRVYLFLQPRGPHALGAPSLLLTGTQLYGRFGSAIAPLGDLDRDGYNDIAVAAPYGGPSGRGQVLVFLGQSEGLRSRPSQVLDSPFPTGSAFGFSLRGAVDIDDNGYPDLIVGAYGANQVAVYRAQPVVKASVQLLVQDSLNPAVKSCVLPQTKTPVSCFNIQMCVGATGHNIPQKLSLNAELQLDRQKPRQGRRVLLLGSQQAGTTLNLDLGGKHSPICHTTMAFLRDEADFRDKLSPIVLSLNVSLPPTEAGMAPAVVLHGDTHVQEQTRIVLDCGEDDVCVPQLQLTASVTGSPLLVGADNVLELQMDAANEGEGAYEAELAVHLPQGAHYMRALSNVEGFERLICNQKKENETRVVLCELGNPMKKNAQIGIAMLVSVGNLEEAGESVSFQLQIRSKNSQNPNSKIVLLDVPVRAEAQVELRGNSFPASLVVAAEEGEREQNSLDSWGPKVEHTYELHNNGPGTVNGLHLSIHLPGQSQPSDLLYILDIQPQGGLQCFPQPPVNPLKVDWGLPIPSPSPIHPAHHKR
T2 sequence (P08514 891-1039 limits assumed): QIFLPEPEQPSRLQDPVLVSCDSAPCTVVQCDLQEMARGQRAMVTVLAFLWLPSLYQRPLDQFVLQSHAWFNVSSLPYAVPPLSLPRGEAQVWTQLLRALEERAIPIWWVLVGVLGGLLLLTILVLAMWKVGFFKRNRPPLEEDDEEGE
T2 sequence (P05106 27-788): as the sequence (P05106 27-788) above
Description: as §1
Human fibrinogen receptor (αIIb β3) was purified from outdated platelets. (Pytela, R., Pierschbacher, M. D., Argraves, S., Suzuki, S., and Rouslahti, E. "Arginine-Glycine-Aspartic acid adhesion receptors", Methods in Enzymology 144(1987):475-489.) Human vitronectin was purified from fresh frozen plasma as described in Yatohgo, T., Izumi, M., Kashiwagi, H., and Hayashi, M., "Novel purification of vitronectin from human plasma by heparin affinity chromatography," Cell Structure and Function 13(1988):281-292. Biotinylated human vitronectin was prepared by coupling NHS-biotin from Pierce Chemical Company (Rockford, Ill.) to purified vitronectin as previously described. (Charo, I. F., Nannizzi, L., Phillips, D. R., Hsu, M. A., Scarborough, R. M., "Inhibition of fibrinogen binding to GP IIb/IIIa by a GP IIIa peptide", J. Biol. Chem. 266(3) (1991): 1415-1421.) Assay buffer, OPD substrate tablets, and RIA grade BSA were obtained from Sigma (St. Louis, Mo.). Anti-biotin antibody was obtained from Calbiochem (La Jolla, Calif.). Linbro microtiter plates were obtained from Flow Labs (McLean, Va.). ADP reagent was obtained from Sigma (St. Louis, Mo.).
as §2
This assay is essentially the same reported in Niiya, K., Hodson, E., Bader, R., Byers-Ward, V. Koziol, J. A., Plow, E. F. and Ruggeri, Z. M., "Increased surface expression of the membrane glycoprotein IIb/IIIa complex induced by platelet activation: Relationships to the binding of fibrinogen and platelet aggregation", Blood 70 (1987):475-483. The purified human fibrinogen receptor (αIIb β3) was diluted from stock solutions to 1.0 μg/mL in Tris-buffered saline containing 1.0 mM Ca^++, Mg^++, and Mn^++, pH 7.4 (TBS^+++). The diluted receptor was immediately transferred to Linbro microtiter plates at 100 μL/well (100 ng receptor/well). The plates were sealed and incubated overnight at 4° C. to allow the receptor to bind to the wells. All remaining steps were at room temperature. The assay plates were emptied and 200 μL of 1% RIA grade BSA in TBS^+++ (TBS^+++ /BSA) were added to block exposed plastic surfaces. Following a 2 hour incubation, the assay plates were washed with TBS^+++ using a 96 well plate washer. Logarithmic serial dilution of the test compound and controls were made starting at a stock concentration of 2 mM and using 2 nM biotinylated vitronectin in TBS^+++ /BSA as the diluent. This premixing of labeled ligand with test (or control) ligand, and subsequent transfer of 50 μL aliquots to the assay plate was carried out with a CETUS Propette robot; the final concentration of the labeled ligand was 1 nM and the highest concentration of test compound was 1.0×10^-4 M. The competition occurred for two hours after which all wells were washed with a plate washer as before. Affinity purified horseradish peroxidase labeled goat anti-biotin antibody was diluted 1:3000 in TBS^+++ /BSA and 125 μL were added to each well. After 30 minutes, the plates were washed and incubated with […]/H2 O2 substrate in 100 mM/L citrate buffer, pH 5.0. The plate was read with a microtiter plate reader at a wavelength of 450 nm and when the maximum-binding control wells reached an absorbance of about 1.0, the final A450 were recorded for analysis. The data were analyzed using a macro written for use with the EXCEL™ spreadsheet program. The mean, standard deviation, and % CV were determined for duplicate concentrations. The mean A450 values were normalized to the mean of four maximum-binding controls (no competitor added) (B-MAX). The normalized values were subjected to a four parameter curve fit algorithm, [Robard et al., Int.

[3] = inhibition of binding of biotinylated human vitronectin (1 nM) to purified receptor, Table I, read-out: AvB3 IC50

IC50 [1, 3] [µM] | IC50 [2] [µM] | SMILES | IC50 ([1]; positive control included on each plate, read-out: αv β3 antagonist IC50 of positive control) [µM]
0.207 | 15.6 | N=C(N)Nc1cccc(C(O)CCc2cccc(/C=C/C(=O)O)c2)c1 (racemic) [Example 96, 3-[3-[3-[3-[(aminoiminomethyl)amino]phenyl]-3-hydroxypropyl]phenyl]propenoic acid, trifluoroacetate salt] | 
15.8 | > 100 | COC(=O)/C=C/c1cccc(CNC(=O)c2cccc(NC(=N)N)c2)c1 [Example 1, methyl 3-[3-[[[[3-[(aminoiminomethyl)-amino]phenyl]carbonyl]amino]methyl]phenyl]-2-propenoate, trifluoroacetate salt] | 
0.00401 | 0.00958 | Cc1cc(/C=C/C(=O)O)ccc1NC(=O)c1cccc(NC(=N)N)c1 [Example 5, 3-[4-[[[3-[(arainoiminomethyl)amino]phenyl]carbonyl]amino]-3-methylphenyl]propenoic acid, trifluoroacetate salt] | 
0.00707 | 0.0141 | N=C(N)Nc1cccc(C(=O)Nc2ccc(/C=C/C(=O)O)cc2F)c1 [Example 11, 3-[4-[[[3-[(aminoiminomethyl)aminolphenyl]carbonyl]-amino]-3-fluorophenyl]-2E-propenoic acid, trifluoroacetate salt] | 
0.155 | 0.67 | N=C(N)Nc1cccc(C(=O)Nc2ccc(/C=C/C(=O)O)cc2C(F)(F)F)c1 [Example 12, 3-[4-[[[3-[(aminoiminomethyl)amino]phenyl]carbonyl]amino]-3-(trifluoromethyl)phenyl]-2E-propenoic acid, trifluoroacetate salt] | 
0.0288 | 2.62 | Cc1cc(/C=C/C(=O)O)cc(Cl)c1NC(=O)c1cccc(NC(=N)N)c1 [Example 15, 3-[4-[[[3-[(aminoiminomethyl)amino]phenyl]carbonyl]-amino]-3-chloro-5-methylphenyl]-2E-propenoic acid, trifluoroacetate salt] | 
0.0509 | 0.0254 | N=C(N)Nc1cccc(C(=O)Nc2ccc(/C=C/C(=O)O)c3ccccc23)c1 [Example 16, 3-[4-[[[3-[(aminoiminomethyl)amino]phenyl]carbonyl]-amino]naphthalen-1-yl]-2E-propenoic acid, trifluoroacetate salt] | 
0.00046 | 0.181 | Cc1cc(/C=C/C(=O)O)ccc1NC(=O)c1cccc(NC2=NCCCN2)c1 [Example 18, 3-[3-methyl-4-[[[3-[(1,4,5,6-tetrahydropyrimidin-2-yl)amino]phenyl]carbonyl]amino]phenyl]propenoic acid, trifluoroacetate salt] | 
0.0233 |  | N=C(N)Nc1cccc(C(=O)Nc2ccc(/C=C/C(=O)O)c(Cl)c2)c1 [Example 28, 3-[4-[[[3-[(aminoiminomethyl)amino]phenyl]carbonyl]-amino]-2-chlorophenyl]propenoic acid, trifluoroacetate salt] | 

Continued, molecule first:

SMILES | IC50 [1, 3] [µM] | IC50 [2] [µM] | IC50 ([1]; positive control included on each plate, read-out: αv β3 antagonist IC50 of positive control) [µM]
N=C(N)Nc1cccc(C(=O)Nc2ccc(C(=CC(=O)O)c3ccccc3)cc2)c1 (single isomer, unassigned) [Example 58, 3-[4-[[[3-[(aminoiminomethyl)amino]phenyl]-carbonyl]amino]phenyl]-3-phenylpropenoic acid, trifluoroacetate salt] | 0.0798 | 2.27 | 
N=C(N)Nc1cccc(C(=O)NCc2cccc(/C=C/C(=O)O)c2)c1 [Example 2, 3-[3-[[[[3-[(aminoiminomethyl)amino]phenyl]carbonyl]amino]methyl]phenyl]-2-propenoic acid, trifluoroacetate salt] | 0.013 | 0.657 | 
CCOC(=O)/C=C/c1ccc(NC(=O)c2cccc(NC(=N)N)c2)cc1 [Example 3, ethyl 3-[4-[[[3-[(aminoiminomethyl)amino]phenyl]carbonyl]amino]phenyl]-2-propenoate, monohydrate trifluoroacetate salt] | 29 | 32.2 | 
N=C(N)Nc1cccc(C(=O)Nc2ccc(/C=C/C(=O)O)cc2)c1 [Example 4, 3-[4-[[[3-[(aminoiminomethyl)amino]phenyl]carbonyl]amino]phenyl]-2-propenoic acid, trifluoroacetate salt] | 0.0106 | 0.00705 | 
CCc1cc(/C=C/C(=O)O)ccc1NC(=O)c1cccc(NC(=N)N)c1 [Example 7, 3-[4-[[[3-[(aminoiminomethyl)amino]phenyl]carbonyl]amino]-3-ethylphenyl]propenoic acid, trifluoroacetate salt] | 0.00295 | 0.0151 | 
N=C(N)Nc1cccc(C(=O)Nc2ccc(/C=C/C(=O)O)cc2Cl)c1 [Example 9, 3-[4-[[[3-[(aminoiminomethyl)amino]phenyl]-carbonyl]amino]3-chlorophenyl]propenoic acid, trifluoroacetate salt] | 0.00346 | 0.011 | 
Cc1cc(/C=C/C(=O)O)cc(C)c1NC(=O)c1cccc(NC(=N)N)c1 [Example 13, 3-[4-[[[3-[(aminoiminomethyl)amino]phenyl]carbonyl]-amino]-3,5-dimethylphenyl]-2E-propenoic acid, trifluoroacetate salt] | 0.0231 | 2.16 | 
N=C(N)NCCCCC(=O)NCC(=O)NC(CC(=O)O)c1cccnc1 (stereo not drawn) [β-[[2-[[5-[(aminoiminomethyl)amino]-1-oxopentyl]amino]-1-oxoethyl]amino]-3-pyridinepropanoic acid] |  |  | 0.003 to 0.01
